Test results published in ChEMBL document CHEMBL4507273 (2021).

Key:
[1] = molecular target: T1, Muscarinic acetylcholine receptor M5 (Homo sapiens, UniProt P08912); test: GPCRScan assay: inhibition of M5; parameters: radioligand conc. used [nm] 0.2 – 1.0, parental cells stable CHO
T1 sequence (P08912 whole entry): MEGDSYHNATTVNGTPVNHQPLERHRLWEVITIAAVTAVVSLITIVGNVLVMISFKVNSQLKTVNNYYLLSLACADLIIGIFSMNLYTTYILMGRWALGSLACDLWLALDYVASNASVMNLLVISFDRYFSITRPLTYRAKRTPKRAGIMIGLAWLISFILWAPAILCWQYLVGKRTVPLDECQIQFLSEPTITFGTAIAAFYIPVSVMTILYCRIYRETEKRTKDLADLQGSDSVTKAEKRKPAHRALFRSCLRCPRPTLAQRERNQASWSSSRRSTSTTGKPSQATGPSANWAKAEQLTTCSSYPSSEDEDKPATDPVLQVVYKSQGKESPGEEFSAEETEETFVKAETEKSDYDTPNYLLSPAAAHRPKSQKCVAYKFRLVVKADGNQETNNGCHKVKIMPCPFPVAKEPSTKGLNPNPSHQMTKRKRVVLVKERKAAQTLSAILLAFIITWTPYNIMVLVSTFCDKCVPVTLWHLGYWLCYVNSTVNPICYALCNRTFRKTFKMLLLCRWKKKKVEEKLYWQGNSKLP

[2] = molecular target: Aurora kinase B (Homo sapiens) (UniProt Q96GD4); conditions: Compound concentration 1000.0 nM
[3] = molecular target: Bone morphogenetic protein receptor type-2 (Homo sapiens) (UniProt Q13873); conditions: Compound concentration 1000.0 nM
[4] = molecular target: Calcium/calmodulin-dependent protein kinase kinase 1 (Homo sapiens) (UniProt Q8N5S9); conditions: Compound concentration 1000.0 nM
[5] = molecular target: Cyclin-dependent kinase 11A (Homo sapiens) (UniProt Q9UQ88); conditions: Compound concentration 1000.0 nM
[6] = molecular target: Cyclin-dependent kinase-like 3 (Homo sapiens) (UniProt Q8IVW4); conditions: Compound concentration 1000.0 nM
[7] = molecular target: Casein kinase II subunit alpha (Homo sapiens) (UniProt P68400); conditions: Compound concentration 1000.0 nM
[8] = system: Epidermal growth factor receptor (Homo sapiens), P00533 [L858R,T790M]; conditions: Compound concentration 1000.0 nM
[9] = molecular target: Ephrin type-A receptor 1 (Homo sapiens) (UniProt P21709); conditions: Compound concentration 1000.0 nM
[10] = system: Receptor-type tyrosine-protein kinase FLT3 (Homo sapiens), P36888 [N841I]; conditions: Compound concentration 1000.0 nM
[11] = molecular target: G protein-coupled receptor kinase 3 (Homo sapiens) (UniProt P35626); conditions: Compound concentration 1000.0 nM
[12] = molecular target: Homeodomain-interacting protein kinase 4 (Homo sapiens) (UniProt Q8NE63); conditions: Compound concentration 1000.0 nM
[13] = molecular target: Mitogen-activated protein kinase 10 (Homo sapiens) (UniProt P53779); conditions: Compound concentration 1000.0 nM
[14] = molecular target: LIM domain kinase 2 (Homo sapiens) (UniProt P53671); conditions: Compound concentration 1000.0 nM
[15] = molecular target: Serine/threonine-protein kinase MARK1 (Homo sapiens) (UniProt Q9P0L2); conditions: Compound concentration 1000.0 nM
[16] = system: Hepatocyte growth factor receptor (Homo sapiens), P08581 [M1250T]; conditions: Compound concentration 1000.0 nM
[17] = molecular target: Serine/threonine-protein kinase 3 (Homo sapiens) (UniProt Q13188); conditions: Compound concentration 1000.0 nM
[18] = molecular target: Serine/threonine-protein kinase PAK 4 (Homo sapiens) (UniProt O96013); conditions: Compound concentration 1000.0 nM
[19] = molecular target: Cyclin-dependent kinase 2 homolog (Plasmodium falciparum (isolate 3D7)) (UniProt P61075); conditions: Compound concentration 1000.0 nM
[20] = molecular target: Cyclin-dependent kinase 14 (Homo sapiens) (UniProt O94921); conditions: Compound concentration 1000.0 nM
[21] = system: Phosphatidylinositol 4,5-bisphosphate 3-kinase catalytic subunit alpha isoform (Homo sapiens), P42336 [E545K]; conditions: Compound concentration 1000.0 nM
[22] = molecular target: cAMP-dependent protein kinase catalytic subunit alpha (Homo sapiens) (UniProt P17612); conditions: Compound concentration 1000.0 nM
[23] = molecular target: Serine/threonine-protein kinase PLK2 (Homo sapiens) (UniProt Q9NYY3); conditions: Compound concentration 1000.0 nM
[24] = molecular target: Protein kinase C eta type (Homo sapiens) (UniProt P24723); conditions: Compound concentration 1000.0 nM
[25] = molecular target: Protein kinase C iota type (Homo sapiens) (UniProt P41743); conditions: Compound concentration 1000.0 nM
[26] = molecular target: Serine/threonine-protein kinase D1 (Homo sapiens) (UniProt Q15139); conditions: Compound concentration 1000.0 nM
[27] = molecular target: Serine/threonine-protein kinase PRP4 homolog (Homo sapiens) (UniProt Q13523); conditions: Compound concentration 1000.0 nM
[28] = molecular target: Protein-tyrosine kinase 2-beta (Homo sapiens) (UniProt Q14289); conditions: Compound concentration 1000.0 nM
[29] = molecular target: Serine/threonine-protein kinase RIO2 (Homo sapiens) (UniProt Q9BVS4); conditions: Compound concentration 1000.0 nM
[30] = molecular target: Serine/threonine-protein kinase RIO3 (Homo sapiens) (UniProt O14730); conditions: Compound concentration 1000.0 nM
[31] = molecular target: Ribosomal protein S6 kinase alpha-2 (Homo sapiens) (UniProt Q15349); conditions: Compound concentration 1000.0 nM
[32] = molecular target: Serine/threonine-protein kinase Sgk2 (Homo sapiens) (UniProt Q9HBY8); conditions: Compound concentration 1000.0 nM
[33] = molecular target: STE20-like serine/threonine-protein kinase (Homo sapiens) (UniProt Q9H2G2); conditions: Compound concentration 1000.0 nM
[34] = molecular target: Serine/threonine-protein kinase TAO2 (Homo sapiens) (UniProt Q9UL54); conditions: Compound concentration 1000.0 nM
[35] = molecular target: Tyrosine-protein kinase receptor Tie-1 (Homo sapiens) (UniProt P35590); conditions: Compound concentration 1000.0 nM
[36] = molecular target: Serine/threonine-protein kinase tousled-like 2 (Homo sapiens) (UniProt Q86UE8); conditions: Compound concentration 1000.0 nM
[37] = molecular target: Transient receptor potential cation channel subfamily M member 6 (Homo sapiens) (UniProt Q9BX84); conditions: Compound concentration 1000.0 nM
[38] = molecular target: Kappa-type opioid receptor (Homo sapiens, UniProt P41145); conditions: Compound concentration 10.0 uM

STE20-like serine/threonine-protein kinase (Homo sapiens), sequence (Q9H2G2 whole entry, looked up): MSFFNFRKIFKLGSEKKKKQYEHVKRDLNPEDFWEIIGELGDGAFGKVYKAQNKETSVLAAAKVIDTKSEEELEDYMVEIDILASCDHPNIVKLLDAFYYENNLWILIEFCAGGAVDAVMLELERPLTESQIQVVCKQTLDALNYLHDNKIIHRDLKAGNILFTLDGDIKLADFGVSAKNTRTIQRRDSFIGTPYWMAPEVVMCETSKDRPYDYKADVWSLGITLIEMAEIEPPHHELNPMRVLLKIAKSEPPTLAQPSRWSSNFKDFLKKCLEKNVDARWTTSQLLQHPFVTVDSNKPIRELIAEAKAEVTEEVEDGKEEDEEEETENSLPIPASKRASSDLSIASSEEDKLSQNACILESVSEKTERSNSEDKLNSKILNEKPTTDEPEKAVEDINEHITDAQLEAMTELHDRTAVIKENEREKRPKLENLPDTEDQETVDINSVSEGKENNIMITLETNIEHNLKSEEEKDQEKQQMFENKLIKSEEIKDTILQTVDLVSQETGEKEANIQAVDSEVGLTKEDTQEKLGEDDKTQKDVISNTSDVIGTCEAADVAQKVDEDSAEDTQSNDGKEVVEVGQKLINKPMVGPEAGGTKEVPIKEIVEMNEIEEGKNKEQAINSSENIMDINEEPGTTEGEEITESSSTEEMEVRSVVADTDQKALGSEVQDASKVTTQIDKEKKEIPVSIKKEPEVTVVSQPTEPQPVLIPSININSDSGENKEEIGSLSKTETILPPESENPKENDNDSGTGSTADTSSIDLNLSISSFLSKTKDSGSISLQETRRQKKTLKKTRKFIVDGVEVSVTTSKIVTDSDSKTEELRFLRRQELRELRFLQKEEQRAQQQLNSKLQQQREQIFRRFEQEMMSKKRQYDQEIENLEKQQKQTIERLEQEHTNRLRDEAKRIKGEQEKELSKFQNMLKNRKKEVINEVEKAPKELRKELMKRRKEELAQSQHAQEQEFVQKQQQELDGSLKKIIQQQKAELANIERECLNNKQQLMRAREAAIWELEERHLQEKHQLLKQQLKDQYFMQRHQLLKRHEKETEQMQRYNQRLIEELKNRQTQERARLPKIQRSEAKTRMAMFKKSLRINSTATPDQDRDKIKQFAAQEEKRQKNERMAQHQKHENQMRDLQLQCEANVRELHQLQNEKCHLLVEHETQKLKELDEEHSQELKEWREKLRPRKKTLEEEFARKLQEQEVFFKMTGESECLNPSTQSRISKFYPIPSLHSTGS
Serine/threonine-protein kinase MARK1 (Homo sapiens), sequence (Q9P0L2 whole entry, looked up): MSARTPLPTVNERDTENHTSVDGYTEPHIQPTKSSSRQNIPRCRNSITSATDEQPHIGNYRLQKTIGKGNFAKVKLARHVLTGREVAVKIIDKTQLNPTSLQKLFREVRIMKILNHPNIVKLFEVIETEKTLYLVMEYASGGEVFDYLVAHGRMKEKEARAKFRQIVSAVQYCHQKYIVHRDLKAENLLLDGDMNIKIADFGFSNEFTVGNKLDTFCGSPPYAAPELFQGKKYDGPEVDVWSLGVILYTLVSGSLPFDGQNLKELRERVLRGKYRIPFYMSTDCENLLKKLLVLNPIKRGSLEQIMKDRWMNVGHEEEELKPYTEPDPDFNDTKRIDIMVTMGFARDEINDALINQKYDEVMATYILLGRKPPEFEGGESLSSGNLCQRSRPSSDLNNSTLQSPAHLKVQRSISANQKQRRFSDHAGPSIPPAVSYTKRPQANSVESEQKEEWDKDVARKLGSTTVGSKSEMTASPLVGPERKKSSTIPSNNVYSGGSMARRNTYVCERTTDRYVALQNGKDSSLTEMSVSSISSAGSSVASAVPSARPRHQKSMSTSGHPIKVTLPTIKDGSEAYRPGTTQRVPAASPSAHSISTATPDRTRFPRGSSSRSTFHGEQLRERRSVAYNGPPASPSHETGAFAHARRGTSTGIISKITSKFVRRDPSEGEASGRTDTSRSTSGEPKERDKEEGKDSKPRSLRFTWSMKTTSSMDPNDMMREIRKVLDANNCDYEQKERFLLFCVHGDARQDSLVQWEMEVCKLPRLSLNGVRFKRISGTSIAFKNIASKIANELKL
Ribosomal protein S6 kinase alpha-2 (Homo sapiens), sequence (Q15349 whole entry): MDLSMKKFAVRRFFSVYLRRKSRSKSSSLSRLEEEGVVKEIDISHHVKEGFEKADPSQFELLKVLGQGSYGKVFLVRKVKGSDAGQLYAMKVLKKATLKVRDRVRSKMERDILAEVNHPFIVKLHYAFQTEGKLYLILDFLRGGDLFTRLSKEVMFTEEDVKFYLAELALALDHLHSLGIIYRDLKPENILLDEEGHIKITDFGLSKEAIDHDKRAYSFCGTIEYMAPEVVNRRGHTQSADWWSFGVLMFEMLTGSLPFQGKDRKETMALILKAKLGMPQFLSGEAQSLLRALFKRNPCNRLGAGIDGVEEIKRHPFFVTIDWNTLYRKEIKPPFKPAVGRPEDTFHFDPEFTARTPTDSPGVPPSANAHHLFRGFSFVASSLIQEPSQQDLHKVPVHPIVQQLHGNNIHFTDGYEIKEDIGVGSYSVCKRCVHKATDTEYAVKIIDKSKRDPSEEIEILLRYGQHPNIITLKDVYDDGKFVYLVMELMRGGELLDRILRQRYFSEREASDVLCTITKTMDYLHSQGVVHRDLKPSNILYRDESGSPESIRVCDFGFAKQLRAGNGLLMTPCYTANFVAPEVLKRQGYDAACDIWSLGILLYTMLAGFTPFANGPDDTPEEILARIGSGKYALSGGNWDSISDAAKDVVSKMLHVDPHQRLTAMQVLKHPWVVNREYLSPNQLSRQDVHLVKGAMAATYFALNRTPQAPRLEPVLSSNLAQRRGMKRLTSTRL
Cyclin-dependent kinase-like 3 (Homo sapiens), sequence (Q8IVW4 whole entry, looked up): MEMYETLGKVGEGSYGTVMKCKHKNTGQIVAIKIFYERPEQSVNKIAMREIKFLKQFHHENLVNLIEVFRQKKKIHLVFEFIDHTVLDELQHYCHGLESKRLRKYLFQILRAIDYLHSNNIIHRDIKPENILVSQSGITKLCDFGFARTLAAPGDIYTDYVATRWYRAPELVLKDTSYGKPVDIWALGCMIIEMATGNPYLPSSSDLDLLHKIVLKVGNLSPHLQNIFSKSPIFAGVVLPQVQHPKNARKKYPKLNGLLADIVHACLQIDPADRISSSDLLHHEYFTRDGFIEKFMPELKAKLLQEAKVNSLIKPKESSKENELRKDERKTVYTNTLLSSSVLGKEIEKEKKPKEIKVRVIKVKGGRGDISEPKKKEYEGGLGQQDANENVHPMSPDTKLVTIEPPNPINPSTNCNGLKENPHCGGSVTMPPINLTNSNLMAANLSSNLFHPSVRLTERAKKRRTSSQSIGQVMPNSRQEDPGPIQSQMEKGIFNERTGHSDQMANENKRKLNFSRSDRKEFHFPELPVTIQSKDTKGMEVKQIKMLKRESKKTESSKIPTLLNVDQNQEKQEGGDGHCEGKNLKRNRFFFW
Protein kinase C eta type (Homo sapiens), sequence (P24723 whole entry): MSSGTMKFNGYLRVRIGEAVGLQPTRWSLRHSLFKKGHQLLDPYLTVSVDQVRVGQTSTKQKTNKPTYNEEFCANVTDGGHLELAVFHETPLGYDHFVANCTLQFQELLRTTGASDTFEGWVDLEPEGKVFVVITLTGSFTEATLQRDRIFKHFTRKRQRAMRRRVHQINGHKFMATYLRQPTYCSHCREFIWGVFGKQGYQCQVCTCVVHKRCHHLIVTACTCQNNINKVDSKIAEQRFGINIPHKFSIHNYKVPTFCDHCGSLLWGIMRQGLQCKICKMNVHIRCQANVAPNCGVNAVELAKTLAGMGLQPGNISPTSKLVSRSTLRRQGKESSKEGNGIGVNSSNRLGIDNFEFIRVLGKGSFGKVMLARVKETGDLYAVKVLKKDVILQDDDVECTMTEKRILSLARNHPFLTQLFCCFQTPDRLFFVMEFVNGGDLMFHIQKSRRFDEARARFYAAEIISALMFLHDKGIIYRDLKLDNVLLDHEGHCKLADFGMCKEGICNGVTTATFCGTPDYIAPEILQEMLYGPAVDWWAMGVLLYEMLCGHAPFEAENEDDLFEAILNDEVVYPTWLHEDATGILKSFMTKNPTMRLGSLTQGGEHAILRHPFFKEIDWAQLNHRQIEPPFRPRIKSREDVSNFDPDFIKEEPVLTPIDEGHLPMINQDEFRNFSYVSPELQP
Serine/threonine-protein kinase tousled-like 2 (Homo sapiens), sequence (Q86UE8 whole entry, looked up): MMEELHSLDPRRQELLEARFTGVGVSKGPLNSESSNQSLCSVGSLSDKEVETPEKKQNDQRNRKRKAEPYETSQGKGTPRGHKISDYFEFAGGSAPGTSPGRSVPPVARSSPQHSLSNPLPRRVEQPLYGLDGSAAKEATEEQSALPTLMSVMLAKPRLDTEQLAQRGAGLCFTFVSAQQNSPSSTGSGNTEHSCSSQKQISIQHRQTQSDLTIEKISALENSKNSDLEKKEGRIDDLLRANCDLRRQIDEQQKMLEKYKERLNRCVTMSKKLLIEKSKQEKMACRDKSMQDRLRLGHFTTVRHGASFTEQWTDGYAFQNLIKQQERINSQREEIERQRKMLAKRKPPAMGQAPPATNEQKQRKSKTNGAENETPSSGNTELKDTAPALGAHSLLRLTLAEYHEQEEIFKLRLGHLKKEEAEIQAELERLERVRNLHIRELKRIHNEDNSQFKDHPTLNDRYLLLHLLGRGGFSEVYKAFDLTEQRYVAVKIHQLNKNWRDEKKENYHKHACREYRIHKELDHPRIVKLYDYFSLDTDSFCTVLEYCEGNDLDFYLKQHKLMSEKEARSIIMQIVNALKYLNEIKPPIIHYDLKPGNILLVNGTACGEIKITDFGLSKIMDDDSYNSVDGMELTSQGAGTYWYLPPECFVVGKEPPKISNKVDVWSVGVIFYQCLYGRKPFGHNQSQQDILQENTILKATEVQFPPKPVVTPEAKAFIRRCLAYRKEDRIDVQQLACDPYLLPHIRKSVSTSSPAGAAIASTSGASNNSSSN

Compound	Ki ([1]; read-out: Ki) [nM]	residual activity [2] [%]	residual activity [3] [%]	residual activity [4] [%]	residual activity [5] [%]	residual activity [6] [%]	residual activity [7] [%]	residual activity [8] [%]	residual activity [9] [%]	residual activity [10] [%]	residual activity [11] [%]	residual activity [12] [%]	residual activity [13] [%]	residual activity [14] [%]	residual activity [15] [%]	residual activity [16] [%]	residual activity [17] [%]	residual activity [18] [%]	residual activity [19] [%]	residual activity [20] [%]	also measured
CNCc1ccccc1-c1csc([C@H](C)Nc2nc(C)nc3cc(OC)c(OC)cc23)c1 [BAY-294]	524	99	100	99	100	97	91	87	100	100	91	91	74	100	100	96	89	100	71	100	residual activity [21]: 75%; residual activity [22]: 100%; residual activity [23]: 83%; residual activity [24]: 100%; residual activity [25]: 87%; residual activity [26]: 100%; residual activity [27]: 100%; residual activity [28]: 100%; residual activity [29]: 100%; residual activity [30]: 100%; residual activity [31]: 100%; residual activity [32]: 100%; residual activity [33]: 100%; residual activity [34]: 90%; residual activity [35]: 100%; residual activity [36]: 100%; residual activity [37]: 100%; inhibition [38]: 64.4%
CNCc1ccccc1-c1csc([C@@H](C)Nc2nc(C)nc3cc(OC)c(OC)cc23)c1 [BAY-293]	956	77	100	100	91	99	83	93	79	77	98	86	71	96	100	79	85	97	76	100	Ki ([1]; read-out: pKi (converted)): 944 nM; residual activity [21]: 78%; residual activity [22]: 100%; residual activity [23]: 82%; residual activity [24]: 100%; residual activity [25]: 100%; residual activity [26]: 90%; residual activity [27]: 96%; residual activity [28]: 100%; residual activity [29]: 100%; residual activity [30]: 94%; residual activity [31]: 100%; residual activity [32]: 95%; residual activity [33]: 97%; residual activity [34]: 86%; residual activity [35]: 100%; residual activity [36]: 90%; residual activity [37]: 91%; inhibition [38]: 26.9%
